Earlier results on one molecule are cited in paper PMC9890135 (Molecular Cancer Therapeutics, 2022).

For the data set the following is noted: cited from earlier work.

The structures appear in SMILES notation.

Take `COc1cc2nccc(Oc3ccc(NC(=O)C4(C(=O)Nc5ccc(F)cc5)CC4)cc3)c2cc1OC` [Cabozantinib, cabozantinib]: the plasma half-life result is reported as “approximately 99 hours”.
